Laboratory results: patent US10961189B2, “Spiro-lactam NMDA receptor modulators and uses thereof” (Aptinyx Inc., priority 2016, dated 2021)
Read-outs that look alike come from different tables or passages of the source.

Experiments:
[1] = oral pharmacokinetics (plasma, brain, CSF); type: in vivo, Sprague Dawley rats; conditions: rat, per os 10 mg/kg; for AUC(0-t) / bioavailability / Tmax / Cmax: Sprague-Dawley, plasma, po; for Tmax: normal saline (* in 5% NMP, 5% Solutol HS, 90% normal saline), read-out: Tmax; for Cmax: read-out: Cmax
Experimental: In another experiment, Sprague Dawley rats were dosed per os using a normal saline formulation containing 10 mg/kg of the compounds identified in the table below (except for the compounds marked with an asterisk (“*”) that were delivered in 5% NMP, 5% Solutol® HS and 90% normal saline formulation). Plasma, brain, and CSF samples were analyzed at various time points over a 24 hour period.

[2] = molecular target: T1, NMDAR2A (Homo sapiens, UniProt Q12879); test: [3H]MK-801 binding in NMDAR expressing HEK cell membranes (facilitation of NMDAR activation); type: biochemical; conditions: 50 μM glutamate; for Emax: 0.25 h, read-out: A: % maximal [3H]MK-801 binding relative to 1 mM glycine; for EC50: read-out: B: log EC50 (converted)
T1 construct: expressed in transfected cells; host or cells: HEK cells (membrane extract)
T1 sequence (Q12879 23-1464, species assumed, other chains not shown): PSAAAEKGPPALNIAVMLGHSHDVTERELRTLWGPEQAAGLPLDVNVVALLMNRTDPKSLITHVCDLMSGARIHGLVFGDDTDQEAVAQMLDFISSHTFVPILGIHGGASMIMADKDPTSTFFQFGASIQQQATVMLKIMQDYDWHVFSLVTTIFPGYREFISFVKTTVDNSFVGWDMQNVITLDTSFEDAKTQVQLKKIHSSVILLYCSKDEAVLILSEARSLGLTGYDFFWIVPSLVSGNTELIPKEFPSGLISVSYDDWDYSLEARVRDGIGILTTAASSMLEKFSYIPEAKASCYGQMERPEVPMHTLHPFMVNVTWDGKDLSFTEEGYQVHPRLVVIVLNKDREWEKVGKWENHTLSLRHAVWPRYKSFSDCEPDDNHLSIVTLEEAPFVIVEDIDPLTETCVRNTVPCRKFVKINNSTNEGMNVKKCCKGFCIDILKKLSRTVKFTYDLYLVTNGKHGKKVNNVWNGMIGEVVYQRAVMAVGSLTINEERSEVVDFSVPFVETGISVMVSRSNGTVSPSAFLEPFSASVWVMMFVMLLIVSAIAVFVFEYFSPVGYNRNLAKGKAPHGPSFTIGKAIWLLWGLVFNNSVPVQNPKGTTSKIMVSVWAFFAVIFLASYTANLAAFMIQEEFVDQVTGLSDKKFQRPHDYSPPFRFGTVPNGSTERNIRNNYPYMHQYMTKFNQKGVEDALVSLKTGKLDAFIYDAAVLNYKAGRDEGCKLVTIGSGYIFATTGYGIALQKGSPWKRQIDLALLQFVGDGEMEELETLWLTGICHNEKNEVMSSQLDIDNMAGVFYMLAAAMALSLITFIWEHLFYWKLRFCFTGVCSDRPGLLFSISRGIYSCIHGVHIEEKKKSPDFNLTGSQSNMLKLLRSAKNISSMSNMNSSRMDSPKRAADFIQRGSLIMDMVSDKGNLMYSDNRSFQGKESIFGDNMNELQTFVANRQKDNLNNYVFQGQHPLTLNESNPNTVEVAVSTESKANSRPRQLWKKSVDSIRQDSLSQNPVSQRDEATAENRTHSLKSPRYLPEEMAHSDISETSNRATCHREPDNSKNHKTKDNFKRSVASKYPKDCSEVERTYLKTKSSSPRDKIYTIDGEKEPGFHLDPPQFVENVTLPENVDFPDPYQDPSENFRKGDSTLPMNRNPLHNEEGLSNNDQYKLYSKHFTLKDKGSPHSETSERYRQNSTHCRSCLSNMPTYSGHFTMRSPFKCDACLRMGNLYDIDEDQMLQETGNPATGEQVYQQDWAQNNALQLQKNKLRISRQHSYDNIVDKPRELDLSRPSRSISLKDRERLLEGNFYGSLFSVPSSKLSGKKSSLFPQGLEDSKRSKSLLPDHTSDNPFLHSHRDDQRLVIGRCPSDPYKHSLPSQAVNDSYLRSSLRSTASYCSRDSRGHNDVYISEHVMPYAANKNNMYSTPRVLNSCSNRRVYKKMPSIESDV
How it was run: (§1)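 HEK membranes (300 μg) expressing the NMDAR subunit were preincubated 15 min at 25 °C with 50 μM glutamate and compound ([…]−1×10^−7M), then with 0.3 μCi [3H]MK-801 for 15 min under nonequilibrium conditions and filtered. Baseline-subtracted DPM was expressed as % of 1 mM glycine, and EC50 and % maximal binding came from three-parameter curve fits.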

[3] = molecular target: T2, NMDAR2B (Homo sapiens, UniProt Q13224); test: as above; type: biochemical; conditions: 50 μM glutamate; for EC50: read-out: B: log EC50 (converted); for Emax: 0.25 h, read-out: A: % maximal [3H]MK-801 binding relative to 1 mM glycine
T2 construct: expressed in transfected cells; host or cells: HEK cells (membrane extract)
T2 sequence (Q13224 27-1484, species assumed, other chains not shown): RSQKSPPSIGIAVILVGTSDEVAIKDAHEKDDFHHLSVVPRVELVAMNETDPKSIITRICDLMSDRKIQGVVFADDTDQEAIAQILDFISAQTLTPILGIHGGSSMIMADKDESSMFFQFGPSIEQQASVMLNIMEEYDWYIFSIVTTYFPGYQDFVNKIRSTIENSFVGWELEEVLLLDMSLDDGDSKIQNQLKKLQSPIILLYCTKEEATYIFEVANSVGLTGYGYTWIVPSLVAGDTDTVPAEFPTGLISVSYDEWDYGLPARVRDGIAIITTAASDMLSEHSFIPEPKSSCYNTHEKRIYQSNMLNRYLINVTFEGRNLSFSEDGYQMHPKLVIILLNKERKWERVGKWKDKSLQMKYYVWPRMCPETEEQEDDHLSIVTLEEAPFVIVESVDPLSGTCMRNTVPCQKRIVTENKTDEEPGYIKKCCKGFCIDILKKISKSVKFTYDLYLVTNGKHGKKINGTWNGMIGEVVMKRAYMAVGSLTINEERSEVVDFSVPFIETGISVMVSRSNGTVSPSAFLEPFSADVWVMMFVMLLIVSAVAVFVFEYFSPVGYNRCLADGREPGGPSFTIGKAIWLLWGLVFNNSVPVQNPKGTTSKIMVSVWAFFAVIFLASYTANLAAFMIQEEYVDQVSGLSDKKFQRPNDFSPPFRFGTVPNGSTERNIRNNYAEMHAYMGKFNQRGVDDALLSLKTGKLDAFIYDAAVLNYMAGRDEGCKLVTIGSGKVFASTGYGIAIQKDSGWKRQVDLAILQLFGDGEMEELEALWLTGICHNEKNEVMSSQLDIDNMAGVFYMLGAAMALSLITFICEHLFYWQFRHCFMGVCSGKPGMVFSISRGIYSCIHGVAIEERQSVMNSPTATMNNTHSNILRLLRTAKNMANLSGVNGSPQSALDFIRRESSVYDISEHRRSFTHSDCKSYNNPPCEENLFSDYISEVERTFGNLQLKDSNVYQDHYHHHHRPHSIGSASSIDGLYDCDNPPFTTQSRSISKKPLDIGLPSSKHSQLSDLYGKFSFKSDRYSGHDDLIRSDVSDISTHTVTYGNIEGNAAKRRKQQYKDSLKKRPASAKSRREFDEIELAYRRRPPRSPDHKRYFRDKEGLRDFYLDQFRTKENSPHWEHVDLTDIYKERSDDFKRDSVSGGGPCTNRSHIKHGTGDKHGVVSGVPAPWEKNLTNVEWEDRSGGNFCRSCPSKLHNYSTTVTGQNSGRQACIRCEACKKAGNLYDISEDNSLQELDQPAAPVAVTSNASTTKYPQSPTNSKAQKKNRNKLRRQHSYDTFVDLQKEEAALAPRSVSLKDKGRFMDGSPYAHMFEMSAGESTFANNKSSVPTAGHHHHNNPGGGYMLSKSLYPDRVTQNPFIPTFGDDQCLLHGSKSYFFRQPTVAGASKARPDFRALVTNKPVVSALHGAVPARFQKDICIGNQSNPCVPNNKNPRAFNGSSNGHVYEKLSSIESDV
How it was run: as §1

[4] = test system: rats; test: positive emotional learning (PEL) test, 50-kHz ultrasonic vocalizations; type: in vivo, rat; conditions: PO, one hour after administration
Experimental: Experiments were conducted as described in Burgdorf et al., “The effect of selective breeding for differential rates of 50-kHz ultrasonic vocalizations on emotional behavior in rats,” Devel. Psychobiol., 51:34-46 (2009). Rat 50-kHz ultrasonic vocalization (hedonic USVs) is a validated model for the study of positive affective state and is best elicited by rough-and-tumble play.
The PEL assay measures the acquisition of positive (hedonic) 50-kHz ultrasonic vocalizations (USVs) to a social stimulus, heterospecific rough and tumble play stimulation. Heterospecific rough-and-tumble play stimulation was administered by the experimenter's right hand. One hour after administration of test compound or vehicle negative control (0.5% sodium carboxymethyl cellulose in […] sterile saline), animals received 3 min of heterospecific rough-and-tumble play that consisted of alternating 15 sec blocks of heterospecific play and 15 sec of no-stimulation. High frequency ultrasonic vocalizations (USVs) were recorded and analyzed by sonogram with Avasoft SASlab Pro (Germany) as previously described by Burgdorf et al., “Positive emotional learning is regulated in the medial prefrontal cortex by GluN2B-containing NMDA receptors,” Neuroscience, 192:515-523 (2011). Frequency modulated 50-kHz USVs that occurred during each of the no-stimulation periods were quantified to measure PEL. Animals were not habituated to play stimulation before testing. Positive emotional learning was measured during the conditioned stimulus (CS) trials preceding the tickle unconditioned stimulus (UCS) trials. Animals received 15 second trials consisting of 6 CS and 6 UCS trials each (3 min total).
The table below summarizes the findings. As each experiment includes its own vehicle group, an example (typical) vehicle score is shown. Max effect (mean number of 50 kHz USVs per 15 seconds) is reported as ^: <6.0; *: 6-10.9; **: 11-16.9; ***: 17-22.

SMILES | AUC(0-t) ([1]; 10 mg/kg) | bioavailability ([1]; 10 mg/kg) | Tmax ([1]; 10 mg/kg) | Cmax ([1]; 10 mg/kg) | CSF Cmax [1] | Brain Cmax [1] | Emax [2] | EC50 [3] | Emax [3] | Max Effect (mean number of 50 kHz USVs per 15 seconds) ([4]; dose .001-1 mg/kg) | EC50 [2] | Max Effect (mean number of 50 kHz USVs per 15 seconds) ([4]; dose .1 mg/kg) | bioavailability [1] | Tmax [1] | AUC(0-t) [1] | Cmax [1] | A: % maximal [3H]MK-801 binding relative to 1 mM glycine [2] | A: % maximal [3H]MK-801 binding relative to 1 mM glycine [3]
CC1CCC2(CC1)CNC2=O (racemic) [Compound AD, 7-methyl-2-azaspiro[3.5]nonan-1-one] | 4580 ng·h/mL | 67% | 25.2 min | 2030 ng/mL | 1009.2 ng/mL | 1832.2 ng/mL | 0% | ≥ 1 nM | < 100% | *** (***: 17-22) | – | – | – | – | – | – | – | –
O=C1NCC12CCC(OCc1ccccc1)CC2 (single isomer, unassigned) [AI, 7-(benzyloxy)-2-azaspiro[3.5]nonan-1-one] | 5900 ng·h/mL | 94% | 30 min | 3970 ng/mL | 269.17 ng/mL | 1087.9 ng/mL | < 100% | < 1 nM | < 100% | ** (**: 11-16.9) | < 1 nM | – | – | – | – | – | – | –
C[C@@H](O)[C@H](NC1CCC2(CC1)CNC2=O)C(N)=O (single isomer, unassigned) [AP] | 2050 ng·h/mL | 15% | 120 min | 625 ng/mL | 80.46 ng/mL | 0 ng/mL | < 100% | < 1 nM | < 100% | – | < 1 nM | ** (**: 11-16.9) | – | – | – | – | – | –
COc1ccc(CN2CC3(CCC(O)CC3)C2=O)cc1 (centres unmarked) [AG] | – | – | – | – | 217.3 ng/mL | 307.49 ng/mL | < 100% | < 1 nM | < 100% | ** (**: 11-16.9) | ≥ 1 nM | – | 41% | 15 min | 1330 ng·h/mL | 1930 ng/mL | – | –
O=C1NCC12CCC(O)CC2 (centres unmarked) [AL, 7-hydroxy-2-azaspiro[3.5]nonan-1-one] | 19300 ng·h/mL | 97% | 60 min | 9480 ng/mL | 7532 ng/mL | 3672 ng/mL | – | < 1 nM | – | ** (**: 11-16.9) | – | – | – | – | – | – | − (−=0) | + (<100%=+)
